The assay in a line: Allosteric enhancer activity at human adenosine A1 receptor expressed in CHO cell membranes assessed as [3H]NECA affinity constant at 1 uM (Kd = 0.87 +/- 0.04 nM).

With `CC(C)(C)Cc1c(C#Cc2ccccc2)sc(N)c1C(=O)c1ccc(Cl)cc1`, the equilibrium dissociation constant (Kd) – broadly, the free concentration of one partner at which half of the binding sites on the other are occupied at equilibrium, for simple one-to-one binding – was 0.46 nM.

(Values after BindingDB's records for doi:10.1021/jm5008853 (University of Ferrara, 2014).)
